Data reported in the supplement of paper PMC10307832.

What was measured:
Test in all cases: relative viability (nuclei count vs DMSO), 5 days (fraction); higher = more cells survive
[1] = compound: O=c1[nH]cc(F)c(=O)[nH]1 [5-Fluorouracil] + CS(=O)(=O)N1CCN(Cc2cc3nc(-c4cccc5[nH]ncc45)nc(N4CCOCC4)c3s2)CC1 [Pictilisib] (partner 1 µM)
Method in brief: (§1)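 One day after seeding in 1536-well plates, lung cancer cell lines were dosed by pin tool. Dosing was either single-drug or a fixed anchor-drug dose plus five library-drug doses (not always all listed) in √10 steps. After 5 days, nuclei were stained in one fix-and-stain step and counted on 4× images, and relative viability is the nuclei count of treated wells over that of vehicle wells, given as the median of duplicate plates.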

[2] = compound: CC1=C(CC(=O)O)c2cc(F)ccc2/C1=C\c1ccc([S+](C)[O-])cc1 [Sulindac] + Cc1cc(Nc2cc(N3CCN(C)CC3)nc(Sc3ccc(NC(=O)C4CC4)cc3)n2)n[nH]1 [Tozasertib] (partner 0.1 µM)
Method in brief: as §1

[3] = compound: O=c1[nH]cc(F)c(=O)[nH]1 [5-Fluorouracil] + O=C(c1cc(Cc2n[nH]c(=O)c3ccccc23)ccc1F)N1CCN(C(=O)C2CC2)CC1 [Olaparib] (partner 8 µM)
Method in brief: as §1

[4] = compound: O=c1[nH]cc(F)c(=O)[nH]1 [5-Fluorouracil] + CC(C)C[C@H](NC(=O)[C@H](Cc1ccccc1)NC(=O)c1cnccn1)B(O)O [Bortezomib] (partner 0.002 µM)
Method in brief: as §1

Cell Line	relative viability ([1]; first compound 0.02 µM)	relative viability ([1]; first compound 0.2 µM)	relative viability ([1]; first compound 0.6325 µM)	relative viability ([1]; first compound 2 µM)	relative viability ([2]; first compound 0.08 µM)	relative viability ([2]; first compound 0.253 µM)	relative viability ([2]; first compound 0.8 µM)	relative viability ([2]; first compound 2.53 µM)	relative viability ([2]; first compound 8 µM)	relative viability ([3]; first compound 0.02 µM)	relative viability ([3]; first compound 0.2 µM)	relative viability ([3]; first compound 0.6325 µM)	relative viability ([3]; first compound 2 µM)	relative viability ([4]; first compound 0.02 µM)	relative viability ([4]; first compound 0.2 µM)	relative viability ([4]; first compound 0.6325 µM)	relative viability ([4]; first compound 2 µM)
LOU-NH91	0.512	0.47	0.388	0.34	0.634	0.662	0.636	0.636	0.744	0.92	0.853	0.74	0.314	0.522	0.559	0.37	0.36
NCI-H1651	0.523	0.57	0.412	0.444	0.755	0.66	–	0.686	0.666	0.172	0.2	0.188	0.175	1.05	0.873	0.464	0.406
NCI-H520	0.316	0.272	0.271	0.232	0.431	0.4	0.435	0.437	0.48	0.294	0.366	0.33	0.258	0.587	0.438	0.382	0.312
